According to patent publication US5354748A, “Oral antibacterial compositions and method for the improvement of gastrointestinal absorption of penem or carbapenem antibiotics” (Suntory Limited, priority 1991, dated 1994):

Experiments:
in vivo = experiment: in vivo; parameters: species or system Sprague-Dawley male rats; conditions: rat, intravenous penem; at each cilastatin dosage
Protocol: The blood was collected during the period of from 0.1 to 1.5 hours after the administration. The concentrations of the free acid of the penem in plasma samples were measured by high performance liquid chromatography (HPLC) to determine the area under the plasma concentration:time curve (AUC).

[1] = test system: epithelial cells isolated from the small intestine of a rat; experiment: Degradation of penem in epithelial cells isolated from rat small intestine (free acid of penem remaining by HPLC, with/without cilastatin); type: in vitro ADME; conditions: cilastatin 35 μg/ml; 37° C., 60 minutes
Protocol: Degradation of penems in epithelial cells isolated from the small intestine of a rat was investigated by the following method. Namely, the epithelial cells were isolated from the small intestine of the rat by the citric acid method reported in The Journal of Biological Chemistry, 248, […] (1973).
After the resultant solution was incubated at 37° C. for 60 minutes, the free acid of the penem was measured by high performance liquid chromatography (HPLC).

CC1(C)C[C@@H]1C(=O)N/C(=C\CCCCSC[C@H](N)C(=O)O)C(=O)O [cilastatin, reference compound]
Area under the plasma concentration:time curve upon intravenous administration, compared with single administration (in vivo): not different | Degradation of the penem carboxylate by addition of cilastatin [1]: inhibited
